Test [1] addresses Tyrosine-protein kinase JAK1 (Mus musculus, UniProt P52332). The test can be described thus: Inhibition of FLAG-tagged mouse JAK1 expressed in insect Sf9 cells using biotin-EQEDEPEGDYFEWLE-NH2 as substrate.
Test [2] concerns the target T1, Tyrosine-protein kinase JAK3 (Homo sapiens, UniProt P52333).
T1 sequence (P52333 whole entry): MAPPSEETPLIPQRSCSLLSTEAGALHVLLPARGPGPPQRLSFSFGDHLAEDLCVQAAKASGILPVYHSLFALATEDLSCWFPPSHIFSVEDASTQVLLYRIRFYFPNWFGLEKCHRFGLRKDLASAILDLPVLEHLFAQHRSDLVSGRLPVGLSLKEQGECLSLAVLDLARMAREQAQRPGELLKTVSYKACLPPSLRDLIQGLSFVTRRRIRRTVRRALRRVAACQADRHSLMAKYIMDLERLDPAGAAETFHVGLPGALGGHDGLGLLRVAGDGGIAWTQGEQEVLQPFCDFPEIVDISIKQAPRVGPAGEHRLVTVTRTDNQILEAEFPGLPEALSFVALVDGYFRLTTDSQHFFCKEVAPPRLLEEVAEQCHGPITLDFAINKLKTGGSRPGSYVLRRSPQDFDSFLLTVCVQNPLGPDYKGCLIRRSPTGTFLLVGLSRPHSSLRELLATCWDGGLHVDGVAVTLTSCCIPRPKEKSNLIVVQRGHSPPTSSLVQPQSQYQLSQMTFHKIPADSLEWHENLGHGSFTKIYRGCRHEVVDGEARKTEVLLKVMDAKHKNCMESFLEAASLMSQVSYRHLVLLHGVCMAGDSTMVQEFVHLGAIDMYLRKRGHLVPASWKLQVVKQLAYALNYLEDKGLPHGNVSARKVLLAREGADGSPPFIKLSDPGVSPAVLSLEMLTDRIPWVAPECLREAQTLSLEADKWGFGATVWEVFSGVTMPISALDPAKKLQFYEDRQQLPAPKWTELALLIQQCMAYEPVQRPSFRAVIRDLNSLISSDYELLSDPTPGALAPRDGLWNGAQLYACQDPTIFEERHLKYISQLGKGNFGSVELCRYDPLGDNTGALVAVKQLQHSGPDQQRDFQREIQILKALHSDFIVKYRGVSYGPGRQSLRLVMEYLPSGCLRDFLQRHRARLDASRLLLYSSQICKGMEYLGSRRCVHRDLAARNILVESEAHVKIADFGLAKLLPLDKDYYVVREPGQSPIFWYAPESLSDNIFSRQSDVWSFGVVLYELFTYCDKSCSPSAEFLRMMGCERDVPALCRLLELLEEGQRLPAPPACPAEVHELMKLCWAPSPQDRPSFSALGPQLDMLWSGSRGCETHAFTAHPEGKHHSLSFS
In words: Inhibition of JAK3 (unknown origin) using tyrosine 6 peptide as substrate by z'-lyte assay.

Test [3] deals with Non-receptor tyrosine-protein kinase TYK2 (Homo sapiens, UniProt P29597). In words: Inhibition of TYK2 (unknown origin) using tyrosine 3 peptide as substrate by z'-lyte assay.
Test [4] has as its target Tyrosine-protein kinase JAK1 (Homo sapiens, UniProt P23458). The test can be described thus: Inhibition of JAK1 (unknown origin) using tyrosine 6 peptide as substrate by z'-lyte assay.
For test [5], the target named is Tyrosine-protein kinase JAK2 (Homo sapiens, UniProt O60674). The test can be described thus: Inhibition of JAK2 (unknown origin) using tyrosine 6 peptide as substrate by z'-lyte assay.

pIC50: −log10 of the molar value.

Sequence of Non-receptor tyrosine-protein kinase TYK2 (P29597 whole entry): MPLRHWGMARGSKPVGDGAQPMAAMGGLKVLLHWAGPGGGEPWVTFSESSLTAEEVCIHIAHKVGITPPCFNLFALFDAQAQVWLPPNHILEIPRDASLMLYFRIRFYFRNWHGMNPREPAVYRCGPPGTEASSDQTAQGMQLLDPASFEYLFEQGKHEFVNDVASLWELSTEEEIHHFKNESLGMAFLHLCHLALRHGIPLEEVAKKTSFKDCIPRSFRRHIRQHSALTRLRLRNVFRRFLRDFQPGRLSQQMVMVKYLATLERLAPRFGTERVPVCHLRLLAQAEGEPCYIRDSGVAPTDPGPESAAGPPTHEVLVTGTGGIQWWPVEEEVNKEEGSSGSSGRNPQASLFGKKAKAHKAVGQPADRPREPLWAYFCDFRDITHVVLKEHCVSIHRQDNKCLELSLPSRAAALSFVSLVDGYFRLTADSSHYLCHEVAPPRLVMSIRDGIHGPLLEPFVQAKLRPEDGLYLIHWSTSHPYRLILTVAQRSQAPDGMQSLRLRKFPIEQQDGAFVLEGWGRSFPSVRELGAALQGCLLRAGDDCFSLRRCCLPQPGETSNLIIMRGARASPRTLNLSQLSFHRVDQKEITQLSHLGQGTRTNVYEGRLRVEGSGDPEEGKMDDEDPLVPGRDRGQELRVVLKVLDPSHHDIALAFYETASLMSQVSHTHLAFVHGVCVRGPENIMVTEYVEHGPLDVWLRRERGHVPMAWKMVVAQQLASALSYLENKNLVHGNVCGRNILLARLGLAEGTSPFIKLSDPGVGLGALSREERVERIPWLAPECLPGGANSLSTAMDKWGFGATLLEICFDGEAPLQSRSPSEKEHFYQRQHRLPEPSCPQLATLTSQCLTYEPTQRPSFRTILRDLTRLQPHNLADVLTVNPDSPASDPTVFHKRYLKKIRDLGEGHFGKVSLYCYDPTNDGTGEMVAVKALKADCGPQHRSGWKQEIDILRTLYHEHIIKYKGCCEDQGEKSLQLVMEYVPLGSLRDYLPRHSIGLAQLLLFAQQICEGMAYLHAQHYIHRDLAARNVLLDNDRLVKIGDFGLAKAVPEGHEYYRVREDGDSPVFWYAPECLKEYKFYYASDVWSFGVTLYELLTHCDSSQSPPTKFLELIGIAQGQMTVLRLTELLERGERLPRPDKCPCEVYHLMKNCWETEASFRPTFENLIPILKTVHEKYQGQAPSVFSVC
Sequence of Tyrosine-protein kinase JAK2 (O60674 whole entry): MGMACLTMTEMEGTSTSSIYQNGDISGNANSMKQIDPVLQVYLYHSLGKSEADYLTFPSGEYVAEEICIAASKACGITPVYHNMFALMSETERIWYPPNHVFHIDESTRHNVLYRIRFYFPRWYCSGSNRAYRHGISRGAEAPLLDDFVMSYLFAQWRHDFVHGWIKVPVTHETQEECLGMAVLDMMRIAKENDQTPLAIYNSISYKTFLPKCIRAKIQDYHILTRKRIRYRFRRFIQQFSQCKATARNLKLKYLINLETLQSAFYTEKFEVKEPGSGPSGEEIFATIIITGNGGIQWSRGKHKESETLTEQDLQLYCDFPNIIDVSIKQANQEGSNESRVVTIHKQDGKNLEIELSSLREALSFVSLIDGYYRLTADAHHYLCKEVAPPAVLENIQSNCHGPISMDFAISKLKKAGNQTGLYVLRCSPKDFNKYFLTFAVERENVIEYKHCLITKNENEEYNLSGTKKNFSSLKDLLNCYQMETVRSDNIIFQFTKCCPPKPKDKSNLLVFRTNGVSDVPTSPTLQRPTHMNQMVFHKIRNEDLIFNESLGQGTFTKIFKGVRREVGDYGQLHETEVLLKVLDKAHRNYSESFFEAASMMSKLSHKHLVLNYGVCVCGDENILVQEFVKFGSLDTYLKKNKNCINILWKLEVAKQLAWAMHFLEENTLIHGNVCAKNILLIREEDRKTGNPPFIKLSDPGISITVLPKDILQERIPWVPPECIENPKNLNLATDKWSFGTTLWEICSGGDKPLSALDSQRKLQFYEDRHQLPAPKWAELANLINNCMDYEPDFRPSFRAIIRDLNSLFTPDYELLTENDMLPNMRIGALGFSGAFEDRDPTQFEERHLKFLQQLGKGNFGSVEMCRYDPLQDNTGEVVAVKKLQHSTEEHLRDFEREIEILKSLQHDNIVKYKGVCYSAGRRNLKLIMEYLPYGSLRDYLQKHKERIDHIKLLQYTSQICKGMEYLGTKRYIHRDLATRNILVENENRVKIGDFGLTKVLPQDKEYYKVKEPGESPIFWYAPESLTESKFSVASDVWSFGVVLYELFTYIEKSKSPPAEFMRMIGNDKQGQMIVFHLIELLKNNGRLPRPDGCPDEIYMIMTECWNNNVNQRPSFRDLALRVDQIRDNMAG
Sequence of Tyrosine-protein kinase JAK1 (Homo sapiens, UniProt P23458) (P23458 whole entry): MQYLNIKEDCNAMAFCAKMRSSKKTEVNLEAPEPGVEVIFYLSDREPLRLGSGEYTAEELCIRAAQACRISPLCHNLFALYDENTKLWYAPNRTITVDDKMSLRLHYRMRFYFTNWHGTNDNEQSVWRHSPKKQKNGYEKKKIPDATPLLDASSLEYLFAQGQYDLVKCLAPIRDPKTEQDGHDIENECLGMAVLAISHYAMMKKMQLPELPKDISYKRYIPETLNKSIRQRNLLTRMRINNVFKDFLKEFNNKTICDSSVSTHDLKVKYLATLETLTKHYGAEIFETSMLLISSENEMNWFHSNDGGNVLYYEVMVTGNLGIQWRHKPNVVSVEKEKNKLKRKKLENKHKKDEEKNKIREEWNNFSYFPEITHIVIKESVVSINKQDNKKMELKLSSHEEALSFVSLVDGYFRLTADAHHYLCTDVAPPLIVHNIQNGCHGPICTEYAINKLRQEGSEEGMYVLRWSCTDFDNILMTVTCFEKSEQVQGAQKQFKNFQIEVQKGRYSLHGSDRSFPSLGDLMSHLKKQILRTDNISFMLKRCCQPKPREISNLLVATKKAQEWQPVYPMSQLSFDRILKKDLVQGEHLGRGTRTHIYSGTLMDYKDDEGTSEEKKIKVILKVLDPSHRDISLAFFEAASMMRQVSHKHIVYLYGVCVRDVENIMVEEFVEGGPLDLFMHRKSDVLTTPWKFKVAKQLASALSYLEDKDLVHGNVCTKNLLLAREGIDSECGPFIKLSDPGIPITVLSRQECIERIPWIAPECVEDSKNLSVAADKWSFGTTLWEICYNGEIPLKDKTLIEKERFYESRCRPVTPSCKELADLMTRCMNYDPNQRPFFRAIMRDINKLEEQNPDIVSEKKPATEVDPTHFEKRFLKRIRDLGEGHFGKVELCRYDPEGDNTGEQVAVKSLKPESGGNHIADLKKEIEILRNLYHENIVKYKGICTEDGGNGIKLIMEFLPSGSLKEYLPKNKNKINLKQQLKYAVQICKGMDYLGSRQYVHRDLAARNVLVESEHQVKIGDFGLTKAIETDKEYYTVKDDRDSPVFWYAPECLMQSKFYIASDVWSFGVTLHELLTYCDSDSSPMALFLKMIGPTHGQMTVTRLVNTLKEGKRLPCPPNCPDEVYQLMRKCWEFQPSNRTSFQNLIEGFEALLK
Sequence of Tyrosine-protein kinase JAK1 (Mus musculus, UniProt P52332) (P52332 whole entry): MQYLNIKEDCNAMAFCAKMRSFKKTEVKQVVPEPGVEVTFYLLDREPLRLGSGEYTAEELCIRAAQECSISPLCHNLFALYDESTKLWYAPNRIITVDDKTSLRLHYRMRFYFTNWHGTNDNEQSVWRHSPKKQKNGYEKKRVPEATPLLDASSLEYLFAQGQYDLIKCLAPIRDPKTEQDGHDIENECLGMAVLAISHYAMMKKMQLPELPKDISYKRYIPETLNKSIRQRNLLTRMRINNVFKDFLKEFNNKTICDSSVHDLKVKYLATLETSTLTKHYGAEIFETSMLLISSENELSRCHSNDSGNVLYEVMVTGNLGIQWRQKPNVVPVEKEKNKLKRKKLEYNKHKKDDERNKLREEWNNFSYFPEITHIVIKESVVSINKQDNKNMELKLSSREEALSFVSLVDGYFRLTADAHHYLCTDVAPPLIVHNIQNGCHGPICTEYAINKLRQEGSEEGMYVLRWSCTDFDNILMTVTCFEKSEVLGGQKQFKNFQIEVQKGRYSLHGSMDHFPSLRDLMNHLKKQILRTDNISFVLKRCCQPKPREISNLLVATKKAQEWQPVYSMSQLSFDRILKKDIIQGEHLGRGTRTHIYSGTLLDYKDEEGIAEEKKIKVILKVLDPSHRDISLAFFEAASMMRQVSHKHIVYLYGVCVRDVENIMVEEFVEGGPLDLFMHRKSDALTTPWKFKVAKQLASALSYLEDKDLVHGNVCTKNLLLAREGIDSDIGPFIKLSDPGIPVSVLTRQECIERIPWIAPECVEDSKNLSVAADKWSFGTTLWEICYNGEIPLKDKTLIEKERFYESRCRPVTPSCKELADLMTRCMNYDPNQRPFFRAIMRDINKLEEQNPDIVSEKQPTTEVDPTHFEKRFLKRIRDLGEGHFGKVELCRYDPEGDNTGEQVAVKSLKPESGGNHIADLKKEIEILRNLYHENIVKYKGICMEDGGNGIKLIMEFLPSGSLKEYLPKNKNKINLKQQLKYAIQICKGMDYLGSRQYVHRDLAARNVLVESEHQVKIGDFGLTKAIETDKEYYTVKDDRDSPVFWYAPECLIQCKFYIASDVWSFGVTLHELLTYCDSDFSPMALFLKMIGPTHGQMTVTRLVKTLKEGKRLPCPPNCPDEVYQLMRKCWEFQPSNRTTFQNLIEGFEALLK

`NCCn1c(C2CCNCC2)nc2cc(C(N)=O)ccc21` had a pIC50 in test [1] of 7.30.
Consider `NCCCn1c2ccc(C(N)=O)cc2nc1[C@H]1CC[C@H](O)CC1`, for which the pIC50 in test [2] was 4.91; in test [3] it was 4.51; in test [4], 5.28.
In the same order, the values of `NCCCn1c(C2CCNCC2)nc2cc(C(N)=O)ccc21` are 4.84, 4.51 and 5.27.
Consider `NC(=O)c1ccc2c(c1)nc([C@H]1CC[C@H](O)CC1)n2CCO`, for which the pIC50 is 5.74 in test [2], 5.49 in test [5], 5.37 in test [3] and 7.10 in test [4].
In the same order, the values of `C[C@@H](O)Cn1c2ccc(C(N)=O)cc2nc1[C@H]1CC[C@H](O)CC1` are 5.07, 4.92, 4.59 and 5.70.
Regarding `CNCCn1c(C2CCNCC2)nc2cc(C(N)=O)ccc21`, the pIC50 in test [2] is 5.82; in test [5], 5.51; in test [3], 5.39; in test [4], 7.05.
In the same order, the values of `NC(=O)c1ccc2c(c1)nc([C@H]1CC[C@H](O)CC1)n2CCCO` are 4.69, 4.53, 4.37 and 5.15.
For `CNCCn1c2ccc(C(N)=O)cc2nc1[C@H]1CC[C@H](O)CC1`, in that order: 5.72, 5.41, 5.25 and 6.82.
